Test results: patent US10881110B2, “Herbicidal compositions comprising isoxazolo[5,4-b]pyridines” (BASF SE, priority 2014, dated 2021)

Tests used:
Assay in all cases: greenhouse post-emergence herbicidal test
LOLMU = assay type: in vivo, Lolium multiflorum
Description: (§1) The culture containers used were plastic pots containing medium loamy sand with approximately 4.6% of humus and 69.9% sand as substrate. The seeds of the test plants were sown separately for each species.
(§2) For the post-emergence treatment, the test plants were grown to a plant height of from 1 to 15 cm, depending on the plant habit, and only then treated with the active compounds which had been suspended or emulsified in water. To this end, the test plants were either sown directly, and grown in the same containers, or they were first grown separately as seedlings and transplanted into the test containers a few days prior to treatment.
(§3) Depending on the species, the plants were kept at 10-25° C. and 20-35° C., respectively.
(§4) The test period extended over 1 to 3 weeks. During this time, the plants were tended and their response to the individual treatments was evaluated 20 days after treatment except mentioned otherwise.
(§5) Evaluation was carried out using a scale from 0 to 100. 100 means no emergence of the plants, or complete destruction of at least the above-ground parts, and 0 means no damage or normal course of growth.
(§6) The respective stated components A and B, and, if appropriate, C, were formulated as a 10% by weight strength emulsion concentrate and, with addition of the amount of solvent system, introduced into the spray liquor used for applying the active compound. In the examples, the solvent used was water.
(§7) In the examples below, using the method of S. R. Colby (1967) “Calculating synergistic and antagonistic responses of herbicide combinations”, Weeds 15, p. 22 ff., the value E, which is expected if the activity of the individual active compounds is only additive, was calculated. E=X+Y−(X·Y/100)

GALAP = assay type: in vivo, Galium aparine; design: key to herbicidal activity against GALAP found: rating on a scale from 0 to 100; conditions: post emergence
Summary of the method: (§8)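 Post-emergence greenhouse test: plants in loamy sand, sprayed at 1–15 cm height with aqueous spray liquor from 10% emulsion concentrates, kept at 10-25 °C or 20-35 °C by species. Damage scored 0–100 (100 = complete destruction), usually 20 days after treatment. Expected additive effect E from Colby: E=X+Y−(X·Y/100).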

ABUTH = assay type: in vivo, Abutilon theophrast; design: key to herbicidal activity against ABUTH found: rating on a scale from 0 to 100; conditions: post emergence
Summary of the method: (§9)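 Each species was sown separately, grown to a height of 1 to 15 cm and then sprayed with water-dispersed components A, B and where relevant C. Growth conditions were 10-25° C or 20-35° C, and percent damage was recorded at 20 days.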

GERDI = assay type: in vivo, Geranium dissectum; design: key to herbicidal activity against GERDI found: rating on a scale from 0 to 100; conditions: post emergence
Summary of the method: as §9

CONAR = assay type: in vivo, Convolvulus arvensis; design: key: rating on a scale from 0 to 100
Summary of the method: as §9

ECHCG = assay type: in vivo, Echinochloa crus-galli; design: key to herbicidal activity against ECHCG found / herbicidal activity against ECHCH found: scale 0 to 100; conditions: post emergence, 20 days after treatment
Summary of the method: as §9

PHACA = assay type: in vivo
Description: as §1, §2, §3, §4, §5, §6, §7

ALOMY = assay type: in vivo, Alopecurus myosuroides; design: key to herbicidal activity against ALOMY found: rating on a scale from 0 to 100; conditions: post emergence, 20 days after treatment
Summary of the method: as §9

MATCH = assay type: in vivo, Matricaria recutita; design: key to herbicidal activity against MATCH found: rating on a scale from 0 to 100; conditions: post emergence
Summary of the method: as §9

APESV = assay type: in vivo, Apera spica-venti; design: key to herbicidal activity against APESV found: rating on a scale from 0 to 100; conditions: post emergence, 20 days after treatment
Summary of the method: as §9

CHEAL = assay type: in vivo, Chenopodium album
Description: as §1, §2, §3, §4, §5, §6, §7

POLCO = assay type: in vivo, Polygonum convolvulus; design: key to herbicidal activity against POLCO found: rating on a scale from 0 to 100; conditions: post emergence
Summary of the method: as §8

STEME = assay type: in vivo, Stellaria media; design: key: scale 0 to 100
Summary of the method: as §9

SEBEX = assay type: in vivo, Sesbania exaltata; conditions: application rate a.i.: I.1 31.25 g/ha
Description: as §1, §2, §3, §4, §5, §6, §7

LAMAM = assay type: in vivo, Lamium amplexicaule; design: key: scale 0 to 100
Description: as §1, §2, §3, §4, §5, §6, §7

GERPU = assay type: in vivo, Geranium pusillum; conditions: application rate a.i.: I.1 31.25 g/ha
Description: as §1, §2, §3, §4, §5, §6, §7

PAPRH = assay type: in vivo, Papaver rhoeas; conditions: application rate a.i.: I.1 62.5 g/ha, B.87 (carfentrazone-ethyl) 1.75 g/ha, alone or as mixture (composition 1.87)
Summary of the method: as §9

PANMI = assay type: in vivo, Panicum miliaceum; conditions: application rate a.i.: I.1 125 g/ha, alone or as mixture (composition 1.113)
Description: as §1, §2, §3, §4, §5, §6, §7

POLPE = assay type: in vivo, Persicaria maculosa; design: key: scale 0 to 100; conditions: application rate a.i.: I.1 31.25 g/ha, B.139 (pyroxasulfone) 12.5 g/ha, alone or as mixture (composition 1.139)
Description: as §1, §2, §3, §4, §5, §6, §7

AMBEL = assay type: in vivo, Ambrosia artemisiifolia; design: key: rating on a scale from 0 to 100; conditions: application rate a.i.: I.1 31.25 g/ha, B.139 (pyroxasulfone) 12.5 g/ha, alone or as mixture (composition 1.139)
Summary of the method: as §9

[1] = a.i. g/ha: I.1 7.8, B.67 125, 20 days after treatment
[2] = a.i. g/ha: I.1 15.6, B.67 125, 20 days after treatment
[3] = a.i. g/ha: I.1 31.25, B.67 125, 20 days after treatment
[4] = a.i. g/ha: I.1 62.5, B.67 62.5, 20 days after treatment
[5] = a.i. g/ha: I.1 62.5, B.67 125, 20 days after treatment
[6] = a.i. g/ha: I.1 20.8, B.67 62.5, 20 days after treatment
[7] = a.i. g/ha: I.1 31.25, B.67 125, 20 days after treatment, sub-table r36-r43
[8] = a.i. g/ha: I.1 6.9, B.67 62.5, 20 days after treatment
[9] = B.87 (carfentrazone-ethyl) 1.75 g/ha, alone or as mixture (composition 1.87)
[10] = application rate a.i.: I.1 62.5 g/ha, B.87 (carfentrazone-ethyl) 1.75 g/ha, alone or as mixture (composition 1.87)
[11] = application rate a.i.: I.1 31.25 g/ha, B.87 (carfentrazone-ethyl) 1.75 g/ha, alone or as mixture (composition 1.87)
[12] = application rate a.i.: I.1 125 g/ha, B.113 (glyphosate) 33.75 g/ha, alone or as mixture (composition 1.113)
[13] = application rate a.i.: I.1 125 g/ha, B.113 (glyphosate) 135 g/ha, alone or as mixture (composition 1.113)
[14] = B.139 (pyroxasulfone) 25 g/ha, alone or as mixture (composition 1.139)
[15] = application rate a.i.: I.1 31.25 g/ha, B.139 (pyroxasulfone) 25 g/ha, alone or as mixture (composition 1.139)
[16] = application rate a.i.: I.1 31.25 g/ha, B.139 (pyroxasulfone) 12.5 g/ha, alone or as mixture (composition 1.139)

CCNc1nc(Cl)nc(NC(C)C)n1 [B.67, atrazine]
herbicidal activity against LOLMU found (LOLMU; [1]): 35% | herbicidal activity against LOLMU found (LOLMU; [2]): 35% | herbicidal activity against LOLMU found (LOLMU; [3]): 35% | herbicidal activity against LOLMU found (LOLMU; [4]): 20% | herbicidal activity against LOLMU found (LOLMU; [5]): 35% | herbicidal activity against GALAP found (GALAP; [2]): 70% | herbicidal activity against GALAP found (GALAP; [6]): 65% | herbicidal activity against GALAP found (GALAP; [3]): 70% | herbicidal activity against GALAP found (GALAP; [4]): 65% | herbicidal activity against ABUTH found (ABUTH; [1]): 60% | herbicidal activity against ABUTH found (ABUTH; [2]): 60% | herbicidal activity against ABUTH found (ABUTH; [3]): 60% | herbicidal activity against ABUTH found (ABUTH; [7]): 60% | herbicidal activity against ABUTH found (ABUTH; [5]): 60% | herbicidal activity against GERDI found (GERDI; [1]): 70% | herbicidal activity against GERDI found (GERDI; [2]): 70% | herbicidal activity against GERDI found (GERDI; [3]): 85% | herbicidal activity against GERDI found (GERDI; [7]): 85% | herbicidal activity against GERDI found (GERDI; [5]): 70% | herbicidal activity against CONAR found (CONAR; [1]): 65% | herbicidal activity against CONAR found (CONAR; [2]): 65% | herbicidal activity against CONAR found (CONAR; [6]): 60% | herbicidal activity against CONAR found (CONAR; [3]): 65% | herbicidal activity against CONAR found (CONAR; [4]): 60% | herbicidal activity against CONAR found (CONAR; [5]): 65% | herbicidal activity against ECHCG found (ECHCG; a.i. g/ha: I.1 20.8, B.67 62.5): 35% | herbicidal activity against ECHCG found (ECHCG; a.i. g/ha: I.1 62.5, B.67 62.5): 35% | herbicidal activity against PHACA found (PHACA; [3]): 30% | herbicidal activity against PHACA found (PHACA; [5]): 30% | herbicidal activity against ALOMY found (ALOMY; a.i. g/ha: I.1 6.9, B.67 62.5): 35% | herbicidal activity against ALOMY found (ALOMY; a.i. g/ha: I.1 20.8, B.67 62.5): 35% | herbicidal activity against ALOMY found (ALOMY; a.i. g/ha: I.1 62.5, B.67 62.5): 35% | herbicidal activity against MATCH found (MATCH; [3]): 70% | herbicidal activity against MATCH found (MATCH; [7]): 70% | herbicidal activity against MATCH found (MATCH; [5]): 50% | herbicidal activity against APESV found (APESV; a.i. g/ha: I.1 2.3, B.67 62.5): 60% | herbicidal activity against APESV found (APESV; a.i. g/ha: I.1 6.9, B.67 62.5): 60% | herbicidal activity against CHEAL found (CHEAL; [8]): 75% | herbicidal activity against CHEAL found (CHEAL; [2]): 80% | herbicidal activity against CHEAL found (CHEAL; [6]): 75% | herbicidal activity against CHEAL found (CHEAL; [3]): 80% | herbicidal activity against POLCO found (POLCO; [2]): 60% | herbicidal activity against POLCO found (POLCO; [6]): 80% | herbicidal activity against POLCO found (POLCO; [3]): 60% | herbicidal activity against POLCO found (POLCO; [4]): 80% | herbicidal activity against STEME found (STEME; a.i. g/ha: I.1 2.3, B.67 62.5, 20 days after treatment): 80% | herbicidal activity against STEME found (STEME; [8]): 80% | herbicidal activity against STEME found (STEME; [2]): 75% | herbicidal activity against STEME found (STEME; [6]): 80% | herbicidal activity against STEME found (STEME; [3]): 75% | herbicidal activity against STEME found (STEME; [7]): 75%

CCOC(=O)C(Cl)Cc1cc(-n2nc(C)n(C(F)F)c2=O)c(F)cc1Cl (stereo not drawn) [B.87, carfentrazone-ethyl]
herbicidal activity against SEBEX, found (SEBEX; [9]): 75 | herbicidal activity against GERDI found (GERDI; [10]): 70 | herbicidal activity against LALAM, found (LAMAM; [11]): 80 | herbicidal activity against LAMAM, found (LAMAM; [10]): 80 | herbicidal activity against GERPU, found (GERPU; [9]): 75 | herbicidal activity against PAPRH found (PAPRH): 30 | herbicidal activity against MATCH found (MATCH; [11]): 75 | herbicidal activity against MATCH found (MATCH; [10]): 75

O=C(O)CNCP(=O)(O)O [B.113, glyphosate]
herbicidal activity against GALAP found (GALAP; [12]): 50 | herbicidal activity against GALAP found (GALAP; [13]): 80 | herbicidal activity against GERDI found (GERDI; [13]): 80 | herbicidal activity against CONAR found (CONAR; [12]): 45 | herbicidal activity against PANMI, found (PANMI; B.113 (glyphosate) 33.75 g/ha): 80 | herbicidal activity against PANMI, found (PANMI; B.113 (glyphosate) 135 g/ha): 90

Cn1nc(C(F)(F)F)c(CS(=O)(=O)C2=NOC(C)(C)C2)c1OC(F)F [B.139, pyroxasulfone]
herbicidal activity against SEBEX, found (SEBEX; [14]): 35 | herbicidal activity against ABUTH found (ABUTH; [15]): 60 | herbicidal activity against POLPE found (POLPE): 55 | herbicidal activity against CONAR found (CONAR; [16]): 60 | herbicidal activity against CONAR found (CONAR; [15]): 60 | herbicidal activity against LAMAM, found (LAMAM; [15]): 45 | herbicidal activity against GERPU, found (GERPU; B.139 (pyroxasulfone) 12.5 g/ha, alone or as mixture (composition 1.139)): 0 | herbicidal activity against GERPU, found (GERPU; [14]): 25 | herbicidal activity against AMBEL found (AMBEL): 10 | herbicidal activity against POLCO found (POLCO; [16]): 15
